# Patent US7955816B2, “Design and synthesis of biotinylated probes for N-acyl-ethanolamines” (Universita Degli Studi Di Roma “Tor Vergata”, priority 2006, dated 2011)
# Tests used:
# HaCaT cells [1] = conditions: Maccarrone et al., 2003, cited from earlier work
# HaCaT cells [2] = assay: HaCaT cell differentiation (cornified envelope formation); assay type: cell-based, human; parameters: dose or concentration left out as unconfirmed; conditions: 5 days, FIG. 4
# Description: Cell differentiation was induced by treating HaCaT cells with 12-O-tetradecanoylphorbol 13-acetate (TPA; 10 ng/ml) plus calcium chloride (CaCl2; 1.2 mM) for 5 days, as reported [Maccarrone et al., 2003]. AEA and b-AEA (or vehicle in the controls) were added directly to the culture medium at the same time as TPA plus calcium. Cornified envelope (CE), a hallmark of keratinocyte differentiation, was extracted from HaCaT cells (5×10^6/test) by exhaustive boiling and sonication in 2% SDS, 20 mM dithiothreitol, 0.1 M Tris-HCl pH 8.0, and 0.5 mM EDTA. CEs were then purified on Ficoll gradients and recovered as sonicated fragments, free of soluble keratin/filaggrin proteins, after pelleting through Ficoll as previously described [Maccarrone et al., 2003]. CE formation was quantified by spectrophotometry at 600 nm and was normalized to the protein content.
# [3] = target: T1, fatty acid amide hydrolase (FAAH) (Homo sapiens, UniProt O00519); assay: FAAH activity in HaCaT cell extracts, compound as substrate; assay type: biochemical; conditions: for hydrolysis by FAAH (substrate or not): FIG. 2B
# T1 construct: The reaction was initiated by the addition of HaCaT cell extracts; endogenous in cells; host or cells: HaCaT cell extracts
# T1 sequence (O00519 1-579): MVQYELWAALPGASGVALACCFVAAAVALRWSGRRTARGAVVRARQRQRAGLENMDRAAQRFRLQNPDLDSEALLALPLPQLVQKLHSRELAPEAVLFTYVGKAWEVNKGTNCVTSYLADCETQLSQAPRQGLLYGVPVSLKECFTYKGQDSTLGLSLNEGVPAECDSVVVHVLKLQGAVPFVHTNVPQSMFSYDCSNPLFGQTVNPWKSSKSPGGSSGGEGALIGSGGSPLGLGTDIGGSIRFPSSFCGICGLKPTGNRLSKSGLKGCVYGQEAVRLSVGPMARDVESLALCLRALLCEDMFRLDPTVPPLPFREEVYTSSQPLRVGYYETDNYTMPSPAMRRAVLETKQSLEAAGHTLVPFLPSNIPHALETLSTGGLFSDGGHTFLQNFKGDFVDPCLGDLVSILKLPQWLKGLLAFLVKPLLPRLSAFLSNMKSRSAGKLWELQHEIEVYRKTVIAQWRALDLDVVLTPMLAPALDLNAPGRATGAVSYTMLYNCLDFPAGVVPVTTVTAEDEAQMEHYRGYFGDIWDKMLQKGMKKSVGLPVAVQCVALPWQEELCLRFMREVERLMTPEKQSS
# Description: (§1) The assay of fatty acid amide hydrolase (E.C. 3.5.1.4, arachidonoylethanolamide amidohydrolase; FAAH) was performed by measuring the release of [^3H]AA from [^3H]AEA (68 mCi/mmol) or [^3H]b-AEA (10 mCi/mmol) through reversed phase high performance liquid chromatography (RP-HPLC) and on-line scintillation counting. [^3H]AEA or [^3H]b-AEA was added to hydrolase assay buffer (50 mM Tris.HCl, pH 9.0) at the indicated concentrations. The reaction was initiated by the addition of HaCaT cell extracts, was continued at 37° C. for 15 min, and then was stopped by the addition of methanol/chloroform/water, with vortexing. This mixture was centrifuged at 3000×g for 5 min, the lower organic phase was dried and the pellet was resuspended in 20 μl of methanol and subjected to RP-HPLC analysis for AA quantitation. The separations of [^3H]AEA or [^3H]b-AEA from [^3H]AA were carried out on a C18 (5 μm, 3.0×150 mm) column, with a mobile phase of methanol-water-acetic acid (85:15:0.1, v/v/v), at a flow rate of 0.8 ml/min. The amount [^3H]AA formed were calculated from the corresponding peak areas. The effect of different concentrations of b-AEA on [^3H]AEA hydrolysis was ascertained by adding the “cold” compound directly to the assay buffer. FAAH activity was expressed as pmol [^3H]AA released from [^3H]AEA per min per mg protein. The results are shown in FIG. 2B, Table 1 and Table 2.
# [4] = tested on: AEA membrane transporter (AMT); assay: AMT assay in HaCaT cells: uptake of the radiolabelled compound as substrate; assay type: cell-based, human; conditions: intact HaCaT cells
# Description: (§2) HaCaT cells [Maccarrone et al., 2003], were cultured in Dulbecco's minimal essential supplemented with 10% fetal calf serum and 100 units/mL streptomycin/penicillin at 37° C. in a 5% CO2 humidified atmosphere. Cells were split twice a week at 1:5 ratio using 0.05% trypsin (w/v), 0.02% EDTA (w/v) in phosphate-buffered saline (PBS). These cells were grown in six-well plates (2×10^6 cells/well) and were incubated for 10 min at 37° C. with [^3H]AEA (Perkin-Elmer Life Sciences, Inc.; Boston, Mass.) or [^3H]b-AEA, and were washed three times with cold PBS containing 1% bovine serum albumin. To discriminate noncarrier-mediated from carrier-mediated transport of AEA, control experiments were carried out at 4° C. and the values subtracted from those at 37° C. Then, the cells were solubilized in 1 ml of 0.1 M NaOH and neutralized (50 μl of concentrated HCl), and radioactivity was determined by liquid scintillation counting. Incubations were also carried out with different concentrations of [^3H]AEA or [^3H]b-AEA, as indicated in the figures, to determine the apparent Michaelis-Menten constant (Km) and maximum velocity (Vmax). The effect of different compounds on AEA or b-AEA uptake was determined by adding each substance directly to the incubation medium, at different concentrations. The results are shown in FIG. 2A, Table 1 and Table 2.
# [5] = tested on: AEA membrane transporter (AMT); assay: Inhibition of [3H]AEA uptake by AMT in intact HaCaT cells; assay type: cell-based, human; conditions: 0.5 μM [3H]AEA, read-out: IC50 for reduction of AEA uptake by AMT
# Description: as §2
# CB2R = target: T2, CB2R (Mus musculus, UniProt P47936); assay: [3H]CP55.940 binding in mouse spleen membrane fractions; conditions: mouse spleen membranes, read-out: IC50 on CB2 receptors
# T2 construct: membrane preparations from mouse brain or mouse spleen were used; from tissue; host or cells: mouse spleen membrane fractions
# T2 sequence (P47936 whole entry): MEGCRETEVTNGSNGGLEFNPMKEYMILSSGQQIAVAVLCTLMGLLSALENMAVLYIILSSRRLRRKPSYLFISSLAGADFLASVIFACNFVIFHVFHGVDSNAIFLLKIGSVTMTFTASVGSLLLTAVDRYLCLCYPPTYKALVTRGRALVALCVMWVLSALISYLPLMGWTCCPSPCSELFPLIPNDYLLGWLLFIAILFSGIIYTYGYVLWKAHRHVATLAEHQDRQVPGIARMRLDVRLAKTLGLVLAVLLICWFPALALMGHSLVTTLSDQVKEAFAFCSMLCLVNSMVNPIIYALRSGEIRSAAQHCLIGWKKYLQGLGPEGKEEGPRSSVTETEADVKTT
# CB1R [6] = target: T3, CB1R (Homo sapiens, UniProt P21554); assay type: binding; conditions: HaCaT membranes, FIG. 2C
# T3 construct: endogenous in cells; host or cells: HaCaT cell membrane fractions
# T3 sequence (P21554 whole entry): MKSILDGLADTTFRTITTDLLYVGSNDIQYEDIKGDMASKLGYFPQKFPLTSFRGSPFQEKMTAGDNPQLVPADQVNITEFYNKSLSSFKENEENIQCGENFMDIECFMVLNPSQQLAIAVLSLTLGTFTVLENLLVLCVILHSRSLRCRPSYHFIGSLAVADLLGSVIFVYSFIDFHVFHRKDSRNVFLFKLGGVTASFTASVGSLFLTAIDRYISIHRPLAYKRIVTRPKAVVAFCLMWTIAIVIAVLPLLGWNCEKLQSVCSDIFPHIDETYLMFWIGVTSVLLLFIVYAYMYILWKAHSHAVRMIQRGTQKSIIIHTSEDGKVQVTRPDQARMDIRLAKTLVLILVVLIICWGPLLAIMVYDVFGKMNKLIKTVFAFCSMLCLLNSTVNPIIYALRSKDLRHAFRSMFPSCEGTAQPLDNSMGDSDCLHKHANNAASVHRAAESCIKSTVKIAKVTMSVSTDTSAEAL
# CB1R [7] = target: T4, CB1R (Mus musculus, UniProt P47746); assay: [3H]CP55.940 binding in mouse brain membrane fractions; conditions: mouse brain membranes, read-out: IC50 on CB1 receptors
# T4 construct: membrane preparations from mouse brain or mouse spleen were used; from tissue; host or cells: mouse brain membrane fractions
# T4 sequence (P47746 whole entry): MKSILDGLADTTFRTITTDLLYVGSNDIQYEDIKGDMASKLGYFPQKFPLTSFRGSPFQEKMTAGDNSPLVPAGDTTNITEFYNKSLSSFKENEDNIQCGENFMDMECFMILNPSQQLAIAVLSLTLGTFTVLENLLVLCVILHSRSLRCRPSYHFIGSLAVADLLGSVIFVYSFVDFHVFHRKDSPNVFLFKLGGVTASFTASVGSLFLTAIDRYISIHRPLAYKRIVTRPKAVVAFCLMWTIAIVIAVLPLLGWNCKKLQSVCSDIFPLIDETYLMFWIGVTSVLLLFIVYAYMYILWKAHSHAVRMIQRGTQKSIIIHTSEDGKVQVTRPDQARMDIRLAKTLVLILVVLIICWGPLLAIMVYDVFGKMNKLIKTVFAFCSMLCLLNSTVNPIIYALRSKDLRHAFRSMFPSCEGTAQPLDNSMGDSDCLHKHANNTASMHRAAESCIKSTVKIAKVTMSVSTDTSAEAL
# [8] = target: T1, fatty acid amide hydrolase (FAAH); assay: Inhibition of [3H]AEA hydrolysis by FAAH in HaCaT cell extracts; assay type: biochemical; conditions: at concentrations up to 10 μM
# Description: as §1
# TRPV1 = target: T5, TRPV1 (Rattus norvegicus, UniProt O35433); assay: [3H]RTX binding in C6 cells membrane fractions; conditions: competition with [3H]RTX; read-out: IC50 on TRPV1 receptors
# T5 construct: membrane fractions isolated from rat neuroblastoma C6 cells were used; endogenous in cells; host or cells: rat C6 cells, membrane fractions
# T5 sequence (O35433 whole entry): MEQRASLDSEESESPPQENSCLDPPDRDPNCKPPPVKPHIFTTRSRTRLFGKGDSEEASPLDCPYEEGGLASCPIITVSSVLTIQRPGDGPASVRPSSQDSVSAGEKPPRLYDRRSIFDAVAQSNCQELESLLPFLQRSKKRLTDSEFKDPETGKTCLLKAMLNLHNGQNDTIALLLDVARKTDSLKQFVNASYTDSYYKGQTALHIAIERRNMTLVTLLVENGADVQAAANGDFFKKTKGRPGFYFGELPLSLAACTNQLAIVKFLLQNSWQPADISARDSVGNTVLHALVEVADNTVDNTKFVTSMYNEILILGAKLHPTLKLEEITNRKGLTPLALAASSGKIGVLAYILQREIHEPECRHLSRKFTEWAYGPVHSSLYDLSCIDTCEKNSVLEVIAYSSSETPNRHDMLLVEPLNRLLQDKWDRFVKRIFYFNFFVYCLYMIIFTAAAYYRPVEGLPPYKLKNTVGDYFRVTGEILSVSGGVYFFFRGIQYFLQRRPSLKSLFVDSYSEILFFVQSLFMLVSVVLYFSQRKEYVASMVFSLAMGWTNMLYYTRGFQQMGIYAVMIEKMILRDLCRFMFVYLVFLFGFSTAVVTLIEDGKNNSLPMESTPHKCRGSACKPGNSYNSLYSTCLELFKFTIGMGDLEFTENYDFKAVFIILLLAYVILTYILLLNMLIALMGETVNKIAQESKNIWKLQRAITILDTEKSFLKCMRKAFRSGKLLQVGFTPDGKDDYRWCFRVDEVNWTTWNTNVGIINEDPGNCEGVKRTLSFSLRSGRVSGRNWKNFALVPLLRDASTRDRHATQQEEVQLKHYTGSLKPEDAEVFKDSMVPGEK
# HaCaT cells [9] = assay: Fluorescence microscopy of b-AEA transport in HaCaT cells; assay type: cell-based, human
# Description: HaCaT cells were plated at a density of 6×10^4 cells/ml on collagen-coated (0.5 mg/ml; Sigma, St. Louis, Mo.) glass coverslips (12 mm). Twenty-four hours after plating, cultures were either left untreated (by adding […] biotin EZ-Link Biotin-PEO-Amine, as negative control) or incubated with […] b-AEA for 10 min at 37° C. in a 5% CO2 humidified atmosphere. […] All steps of the immunofluorescence procedure were performed at room temperature. Cells were washed, fixed with 3% paraformaldehyde (Sigma) for 20 min, and then permeabilized with 0.1% Triton X-100 in PBS for 15 min. After a blocking step in Image-iT™ FX signal enhancer (Molecular Probes, Eugene, Oreg.) for 30 min, cells were incubated for 1 h with anti-biotin primary antibody (Molecular Probes, Eugene, Oreg.), diluted 1:50 in Image-iT™ FX signal enhancer. […] N-Piperidino-5-(4-chlorophenyl)-1-(2,4-dichloro-phenyl)-4-methyl-3-pyrazole carboxamide (SR141716), and N-[1(S)-endo-1,3,3-trimethyl-bicyclo[2.2.1]heptan-2-yl]-5-(4-chloro-3-methylphenyl)-1-(4-methyl-benzyl)-pyrazole-3-carboxa-mide (SR144528) were kind gifts from Sanofi-Aventis Recherche (Montpellier, France). OMDM-1 was a kind gift from Dr. S. Marinelli (Experimental Neurology, IRCCS Fondazione Santa Lucia, Rome, Italy).
# NAPE-PLD = target: T6, NAPE-PLD (Homo sapiens, UniProt Q6IQ20); assay: NAPE-PLD activity in HaCaT cell extracts; assay type: biochemical; conditions: at concentrations up to 10 μM
# T6 construct: endogenous in cells; host or cells: HaCaT cell extracts
# T6 sequence (Q6IQ20 whole entry): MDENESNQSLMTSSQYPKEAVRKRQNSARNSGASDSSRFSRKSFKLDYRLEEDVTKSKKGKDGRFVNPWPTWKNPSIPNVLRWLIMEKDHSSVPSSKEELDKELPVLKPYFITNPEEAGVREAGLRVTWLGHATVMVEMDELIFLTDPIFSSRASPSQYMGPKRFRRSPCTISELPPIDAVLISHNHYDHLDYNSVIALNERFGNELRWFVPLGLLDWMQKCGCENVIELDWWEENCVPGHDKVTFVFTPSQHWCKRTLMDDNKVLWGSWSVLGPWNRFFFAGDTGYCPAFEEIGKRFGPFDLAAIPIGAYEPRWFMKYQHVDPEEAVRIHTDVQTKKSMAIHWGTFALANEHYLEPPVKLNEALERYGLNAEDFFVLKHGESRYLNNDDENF
# Description: HaCaT cell extracts (100 μg/test) were incubated at 37° C. for 30 min with a clear mixture of [^3H]NArPE (ARC; St. Louis, Mo.) and NArPE (“cold” NArPE was synthesized from AA and phosphatidylethanolamine) at a final specific activity of 6.8 nCi/nmol, in 200 μl of 50 mM Tris-HCl, pH 7.4, containing 0.1% Triton X-100. A mixture of chloroform/methanol (2:1, v/v; 600 μl) was added to stop the reaction. Then, the samples were vortexed and centrifuged at room temperature, and the lower organic phase was dried. The pellet was resuspended in 20 μl of methanol and subjected to RP-HPLC coupled to on-line scintillation counting. The separations were carried out on a C18 (5 μm, 3.0×150 mm) column with a mobile phase of methanol-water-acetic acid (85:15:0.1, v/v/v), at a flow rate of 0.8 ml/min. The amount of [^3H]AEA formed was calculated from the corresponding peak areas. The identity of the peaks was assessed also by UV detection of cold standard, recording absorbance at 204 nm. The effect of b-AEA on NAPE-PLD activity was ascertained by adding different concentrations of the biotin-derivative directly to the assay buffer. NAPE-PLD activity was expressed as pmol [^3H]AEA released from [^3H]NArPE per min per mg protein.
smiles,measurement,setting,value
"CCCCC/C=C\C/C=C\C/C=C\C/C=C\CCCC(=O)NCCO [AEA, N-arachidonoylethanolamine]",effect on CE formation in HaCaT cells,HaCaT cells [1]; maximum effect at 1 μM,dose-dependently reduces CE formation
same,effect on HaCaT cell differentiation (CE formation induced by TPA+calcium),HaCaT cells [2],blocked
same,hydrolysis by FAAH (substrate or not),[3],hydrolyzed in a concentration-dependent manner
same,FAAH Vmax,[3]; compound as substrate,385 ± 25 pmol/min per mg protein
same,AMT Vmax,[4],124 ± 8 pmol/min per mg protein
same,Km,[4],0.353 ± 0.06 µM
"Cc1c(C(=O)NN2CCCCC2)nn(-c2ccc(Cl)cc2Cl)c1-c1ccc(Cl)cc1 [SR141716, N-Piperidino-5-(4-chlorophenyl)-1-(2,4-dichloro-phenyl)-4-methyl-3-pyrazole carboxamide]",reversal of the AEA effect on CE formation,HaCaT cells [1]; 0.1 μM,fully reversed
"CCCCC/C=C\C/C=C\C/C=C\C/C=C\CCCC(=O)NCCOCCOCCNC(=O)CCCC[C@@H]1SC[C@@H]2NC(=O)N[C@@H]21 [b-AEA, (+)-N-arachidonoyl-biotinyl-3,6-dioxaoctanediamine]",IC50,[5],0.5 ± 0.1 µM
same,IC50,CB2R,> 10 µM
same,binding to CB1 receptors of HaCaT cells,CB1R [6],did not bind
same,IC50,CB1R [7],> 10 µM
same,effect on FAAH activity of HaCaT cells,[8],does not affect
same,effect on HaCaT cell differentiation (CE formation induced by TPA+calcium),HaCaT cells [2],ineffective
same,IC50,TRPV1,> 10 µM
same,hydrolysis by FAAH (substrate or not),[3],not a substrate for FAAH
same,uptake by HaCaT cells seen by immunofluorescence,"HaCaT cells [9]; 5 M per test, FIG. 3",cells quickly take up b-AEA
same,effect on NAPE-PLD activity of HaCaT cells,NAPE-PLD,does not affect
same,AMT Vmax,[4],116 ± 10 pmol/min per mg protein
same,Km,[4],0.421 ± 0.088 µM
same,AMT Vmax,[4]; listed as [^3H]b-AEA,116 ±10 pmol/min per mg protein
NC(=O)c1cccc(-c2cccc(OC(=O)NC3CCCCC3)c2)c1 [URB597],effect on uptake and intracellular trafficking of b-AEA in HaCaT cells,"HaCaT cells [9]; 1 μM, added 5 min before probe",did not affect
CCCCCCCC/C=C\CCCCCCCC(=O)N[C@H](CO)Cc1ccc(O)cc1 [OMDM-1],effect on b-AEA immunostaining (uptake) of HaCaT cells,"HaCaT cells [9]; 5 μM, added 5 min before probe",remarkable decrease of immunostaining
